How the values were obtained:
cerebellar granule cells [1] = experiment: Oligonucleosome formation (cell death detection ELISA), serum deprivation; assay type: cell-based, rat; conditions: for apoptosis (oligonucleosome formation) induced by the absence of FCS: curcumin 1, 5, 10, 25 and 50 μM
Procedure: (§1) Primary cultures of cortical neurons and cerebellar granule cells were prepared. In brief, cortical neurons were prepared from fetal brain from 17-day pregnant rat and cerebellar granule cells from 8-day old rats. Brain tissues were dissociated through trypsinization in 0.025% trypsin solution and trituration. Dissociated cells were collected through centrifugation and resuspended in standard medium containing: basal Eagle's medium containing 10% fetal bovine serum (FCS), 2 mM glutamine, genatmycin 0.05 mg/ml, and 25 mM KCI. Cells were plated at a density of 1.8×10^6 onto 35-mm dishes coated with 10 micrograms/ml ply-L-lysine.
(§2) To induce programmed cell death in […] granule cells, two different experimental well-established paradigms: serum deprivation and low K^+, were performed. In particular, neurons were cultured after their plating in serum free medium containing 25 mM KCI or in standard medium for 6 days and then agitating them in a medium containing 10% FCS and 5 mM KCI. In both of these paradigms, control cells were grown in medium containing 10% FCS and 25 mM KCI.
(§3) To induce apoptosis in cortical neurons, β-amyloid peptide (1-40), a molecule related to the pathogenesis of Alzheimer disease and a well known inducer of apoptosis was added.

cerebellar granule cells [2] = experiment: Oligonucleosome formation (cell death detection ELISA), low K+; assay type: cell-based, rat; conditions: for apoptosis (oligonucleosome formation) induced by low extracellular K+: curcumin 1, 5, 10, 25 and 50 μM
Procedure: as §1, §2, §3

Male Wistar rats = experiment: Lethality after intracerebroventricular T-BuOOH; assay type: in vivo, rat
Procedure: Male Wistar rats, weighing 140-180 g, were used for all experiments. Ten animals per experimental group were pre-administrated with curcumin, suitably suspended in distilled water, at the dose of 50 mg/kg per day, through oral intubation, for 7 days, before an intracerebroventricular injection of T-butylhydroperoxide (T-BuOOH) 2 μl of a 70% solution of phosphate buffered saline (PBS)^16. Lethality was assessed after administration of T-BuOOH at time points: 0, 2, 6, 12, and 24 h, and was expressed as the percentage of survival relative to the lethality observed in T-BuOOH plus Tween/saline vehicle (control) treated animals (FIG. 11A). After 30h the surviving animals were sacrificed and their brains quickly removed to investigate lipid peroxide formation as an index of oxidative challenge in neurons.
Male Wistar rats, weighing 140-180 g, were used for all experiments. […] Lethality was assessed after administration of T-BuOOH at time points: 0, 2, 6, 12, and 24 h, and was expressed as the percentage of survival relative to the lethality observed in T-BuOOH plus Tween/saline vehicle (control) treated animals (FIG. 12A). […]

heme oxygenase = experiment: Heme oxygenase activity assay in astrocytes; assay type: cell-based
Procedure: Type 1 astrocytes (DI TNC1) were purchased from the American Type Culture Collection (Manassas, VA) and cultured in Dulbecco's modified Eagle's medium containing 4.5 g/l glucose, 2 mM glutamine, 100 units/ ml penicillin, and 0.1 mg/ml streptomycin and supplemented with 10% fetal bovine serum. Cells were grown in 75-cm^2 flasks and maintained at 37° C. in a humidified atmosphere of air and 5% CO2. Confluent cells were exposed to various concentrations of curcumin, CAPE, or Curcumin-95. After each treatment (6 or 24 h), cells were harvested for the determination of heme oxygenase activity, HO-1 protein expression, and intracellular glutathione. Astrocytes growing in 24 wells were exposed to polyphenolic compounds, and cell viability was determined at 24 h. Heme oxygenase activity was determined at the end of each treatment as described previously by Foresti, et al.^18 and Motterlini, et al.^19 Briefly, microsomes from harvested cells were added to a reaction mixture containing NADPH, glucose-6-phosphate dehydrogenase, rat liver cytosol as a source of biliverdin reductase, and the substrate hemin. The reaction mixture was incubated in the dark at 37° C. for 1 h and was terminated by the addition of 1 ml of chloroform. After vigorous vortex and centrifugation, the extracted bilirubin in the chloroform layer was measured by the difference in absorbance between 464 and 530 nm (ε=40 mM^−1cm^−1).

[3] = test system: Type 1 astrocytes (DI TNC1); experiment: Cell viability of astrocytes, Alamar Blue; assay type: cell-based; conditions: 24 h; for cytotoxic action in the presence of NAC: 1 mM NAC, curcumin 100 μM, CAPE 50 μM and 100 μM; for cell viability and cell morphology: concentration not exceeding 30 μM
Procedure: Type 1 astrocytes (DI TNC1) were purchased from the American Type Culture Collection (Manassas, VA) and cultured in Dulbecco's modified Eagle's medium containing 4.5 g/l glucose, 2 mM glutamine, 100 units/ ml penicillin, and 0.1 mg/ml streptomycin and supplemented with 10% fetal bovine serum. Cells were grown in 75-cm^2 flasks and maintained at 37° C. in a humidified atmosphere of air and 5% CO2. Confluent cells were exposed to various concentrations of curcumin, CAPE, or Curcumin-95. After each treatment (6 or 24 h), cells were harvested for the determination of heme oxygenase activity, HO-1 protein expression, and intracellular glutathione. Astrocytes growing in 24 wells were exposed to polyphenolic compounds, and cell viability was determined at 24 h. Astrocytes were exposed to curcumin or CAPE for the indicated times, and cell viability was assessed with the use of an Alamar Blue assay according to manufacturer's instructions (Serotec; Oxford, UK) as reported previously^11. At the end of each treatment, cells were washed twice and incubated for an additional 5 h in complete medium containing 1% Alamar Blue solution. Optical density in each sample was measured using a plate reader (Molecular Devices; Crawley, UK). The intensity of the color developed in the medium is proportional to the viability of cells, which is calculated as the difference in absorbance between 570 and 600 nm and expressed as percentage of control.

[4] = test system: Type 1 astrocytes (DI TNC1); experiment: Intracellular glutathione (GSH, GSSG) in astrocytes; assay type: cell-based
Procedure: Type 1 astrocytes (DI TNC1) were purchased from the American Type Culture Collection (Manassas, VA) and cultured in Dulbecco's modified Eagle's medium containing 4.5 g/l glucose, 2 mM glutamine, 100 units/ ml penicillin, and 0.1 mg/ml streptomycin and supplemented with 10% fetal bovine serum. Cells were grown in 75-cm^2 flasks and maintained at 37° C. in a humidified atmosphere of air and 5% CO2. Confluent cells were exposed to various concentrations of curcumin, CAPE, or Curcumin-95. After each treatment (6 or 24 h), cells were harvested for the determination of heme oxygenase activity, HO-1 protein expression, and intracellular glutathione. […] GSH and GSSG levels were measured after 6- and 24- h exposure of astrocytes to curcumin and CAPE using a method previously described^19,20. Briefly, cells harvested in cold PBS were freeze-thawed three times, and an aliquot of this suspension was added to a buffer solution containing 12 mM EDTA and 10 mM 5,5′-dithiobis-(2-nitrobenzoic acid). Total glutathione was measured spectrophotometrically (optical density=412nm) using the glutathione reductase-recycling assay. To determine the amount of GSSG, an aliquot of the cell suspension was added to an equal volume of buffer containing EDTA and N-ethylmaleimide (10 mM). The sample was mixed and centrifuged, and the supernatant was passed through a C18 Sep-Pak cartridge (Waters, Milford, Mass.) to remove the excess N-ethylmaleimide. The sample was added to a cuvette containing 5,5′-dithiobis-(2-nitrobenzoic acid) and glutathione reductase, and the assay was performed as for the measurement of total glutathione. Intracellular glutathione was determined by comparison with a standard curve obtained with GSH and GSSG solutions and was expressed as nmoles/mg of protein.

[5] = high concentrations (50 and 100 μM)

Row | Structure (SMILES) | concentration with strongest / most effective anti-apoptotic effect (cerebellar granule cells [1]) [µM] | apoptosis (oligonucleosome formation) induced by the absence of FCS (cerebellar granule cells [1]) | concentration with strongest / most effective anti-apoptotic effect (cerebellar granule cells [2]) [µM] | apoptosis (oligonucleosome formation) induced by low extracellular K+ (cerebellar granule cells [2]) | heme oxygenase activity (heme oxygenase; [5]) | reduction in cell viability ([3]; 50 μM) [%] | reduction in cell viability ([3]; 100 μM) [%] | cytotoxic action in the presence of NAC [3] | cell viability and cell morphology [3] | intracellular GSH ([4]; 6 h, 50 μM) | intracellular GSH ([4]; 6 h, 15 and 30 μM) | also measured
1 | O=C(/C=C/c1ccc(O)c(O)c1)OCCc1ccccc1 [CAPE, Caffeic acid phenethyl ester] | 25 | strong dose-dependent anti-apoptotic effect | 25 | strong dose-dependent anti-apoptotic effect | unable to stimulate an increase in heme oxygenase activity | 61 | 78 | significantly attenuated the cytotoxic action | fully preserved | did not affect GSH | elevation of GSH | protection against T-BuOOH induced lethality (Male Wistar rats; 20 mg/kg per day oral for 7 days before i.c.v. T-BuOOH): marked protection; concentration of maximal enzyme activation (heme oxygenase): 30 µM; enzyme activation and protein expression at 100 μM compared with 30 μM (heme oxygenase; 100 μM): significantly less effective; heme oxygenase activity (heme oxygenase; low concentrations 15-50 μM): substantial increase; intracellular GSH ([4]; 24 h, 50 μM): significant depletion of GSH; intracellular GSSG ([4]; 24 h, 50 μM): concomitant elevation in GSSG; intracellular GSH ([4]; 24 h, 15 and 30 μM): marked reduction
2 | COc1cc(C=CC(=O)CC(=O)C=Cc2ccc(O)c(OC)c2)ccc1O [curcumin, 1,7-bis[4-Hydroxy-3-methoxyphenyl]-1,6-heptadiene-3,5-dione] | 25 | significantly reduced apoptosis | 25 | significantly reduced apoptosis | unable to stimulate an increase in heme oxygenase activity | 20 | 63 | significantly attenuated the cytotoxic action | fully preserved | without affecting the GSH content | significant increase | animals that died after T-BuOOH (Male Wistar rats; 50 mg/kg per day oral for 7 days before i.c.v. T-BuOOH, over 24 h (T-BuOOH alone 60%)): 20%; increase in heme oxygenase activity (heme oxygenase; 6 h, 15 μM): 7.4 fold; increase in heme oxygenase activity (heme oxygenase; 6 h, 30 μM): 9.1 fold; heme oxygenase activity (heme oxygenase; 6 h, 30 μM (control 247±5)): 2461±194 pmol of bilirubin/mg of protein/h; heme oxygenase activity (heme oxygenase; 6 h, 30 μM plus 1 mM NAC): 2392±22 pmol of bilirubin/mg of protein/h; heme oxygenase activity (heme oxygenase; 6 h, 50 μM, absence of NAC): 492±30 pmol of bilirubin/mg of protein/h; heme oxygenase activity (heme oxygenase; 6 h, 50 μM, presence of 1 mM NAC): 752±78 pmol of bilirubin/mg of protein/h; effect of NAC on the increase in heme oxygenase activity (heme oxygenase; 6 h, 15 and 30 μM, 1 mM NAC): not significantly affected by the presence of NAC; elevation in heme oxygenase activity (heme oxygenase; higher concentrations (50-100 μM)): 1.9 fold; glutathione oxidation (GSSG) ([4]; 6 h, 50 μM): caused oxidation; intracellular GSSG ([4]; 6 h, 15 and 30 μM): significant increase; intracellular GSH ([4]; 24 h, 15, 30, and 50 μM): concentration-dependent decrease in GSH; intracellular GSSG ([4]; 24 h, 15, 30, and 50 μM): gradual and substantial increase in GSSG levels

— patent US20040167217A1, “Neuroprotective effects of polyphenolic compounds” (priority 2003, published 2004)
